Values quoted from earlier work, collected in patent US12440499B2, “Topical composition” (MC2 Therapeutics Limited, priority 2018, dated 2025).

Conditions: in presence of water

pH value for maximum stability: above 8
Compound: C=C1/C(=C\C=C2/CCC[C@]3(C)[C@@H]([C@H](C)/C=C/[C@@H](O)C4CC4)CC[C@@H]23)C[C@@H](O)C[C@@H]1O [calcipotriol]
